Paper PMC8041751, “Structural basis for an exceptionally strong preference for asparagine residue at the S2 subsite of Stenotrophomonas maltophilia dipeptidyl peptidase 7” (Scientific Reports, 2021)
Residues, ends and D or L forms follow the SMILES beside them.

How the values were obtained:
SmDPP7 = assay: Inhibition assay using dipeptide library, Tyr-Tyr-MCA hydrolysis; type: biochemical, Stenotrophomonas maltophilia; conditions: for Ki: Xaa-Tyr as competitive inhibitor, substrate 200 µM Tyr-Tyr-MCA, pH 7.0, 298 K, Ki from IC50 by Cheng-Prusoff
Method: Figure 1 Effect of Xaa-Tyr dipeptides on the hydrolytic activity of SmDPP7 towards synthetic substrate Tyr-Tyr-MCA. Inhibition assay was performed as described in “Materials and methods”. Residual activity was measured under conditions where 200 µM Xaa-Tyr dipeptide and 200 µM Tyr-Tyr-MCA, synthetic substrate were added into the reaction solution. […] The standard deviations were obtained from three independent experiments.
The dipeptide library was purchased from AnaSpec (Fremont, CA, US). Ile-Tyr and Arg-Tyr were synthesized by Eurofins Genomics (Tokyo, Japan). Cys-Tyr and Cys-Asp could not be purchased commercially. Different concentrations (3.13, 6.25, 12.5, 25, 50, 100, and 200 µM) of dipeptides as the inhibitor and 200 µM Tyr-Tyr-MCA (GenScript, NJ, US) as the substrate for DPP7 were added into a reaction buffer consisting of 50 mM sodium phosphate buffer pH 7.0, 5 mM EDTA and 0.005% Tween 20. For DPP11s, different concentrations (1.56, 3.13, 6.25, 12.5, 25, 50, and 100 µM) of dipeptides as the inhibitor and 100 µM Leu-Asp-MCA (Peptide Institute, Osaka, Japan) as the substrate were used. The enzyme reaction was performed at 298 K for 20 min and standard deviations were calculated from three independent experiments. Half-maximal inhibitory concentration (IC50) values were determined by fitting to a sigmoid curve (4-parameter logistic curve) using ImageJ software[35] and inhibition constants (Ki) were calculated using the Cheng-Prusoff Equation[36]. The fluorescence intensity of the released MCA was measured with the same method of determination of kinetics parameters toward dipeptidyl MCA.

wild-type SmDPP7 = assay: Isothermal titration calorimetry of dipeptide binding; parameters: species or system Stenotrophomonas maltophilia; conditions: ITC, 50 mM sodium phosphate pH 7.0, 2.5% dimethyl sulfoxide, 25 °C
Method: Figure 6 Thermodynamic parameters of dipeptide binding of SmDPP7. The value of thermodynamic parameters is represented in Table S3. The dissociation constant (Kd) and heats of binding (ΔH) were obtained using MICROCAL PEAQ-ITC Analysis software (Malvern, UK). Gibbs free energy (ΔG) and entropy energy (ΔS) were calculated according to the equation, ΔG = − RT ln Ka = RT ln Kd (Ka = 1/ Kd, association constants). Standard deviations were obtained from three independent experiments.
The bindings were analysed using a MICROCAL PEAQ-ITC microcalorimeter (Malvern, UK). The binding reactions were performed in 50 mM sodium phosphate pH 7.0 and 2.5% dimethyl sulfoxide at 25 °C and were stirred at 750 rpm. A single injection of 0.4 μl and 19 times injections of 2.0 μl of the dipeptide solution were injected into 350 μl of enzyme solution (wild-type SmDPP7). The wild-type SmDPP7 concentration was 25 µM and the concentration of each dipeptide solution was 250 µM in reaction buffer. Each injection was performed for 4 s with an interval of 150 s between injections. The dissociation constant (Kd) and heats of binding (ΔH) were obtained using MICROCAL PEAQ-ITC Analysis software (Malvern, UK). Gibbs free energy (ΔG) values were calculated according to ΔG = − RT ln Ka = RT ln Kd (Ka = 1/ Kd, association constants).

| Molecule | Ki (SmDPP7) [µM] | Kd (wild-type SmDPP7) [µM] | Effect on hydrolytic activity of SmDPP7 (residual activity) (SmDPP7; 200 µM Xaa-Tyr dipeptide and 200 µM Tyr-Tyr-MCA, Fig. 1) |
| --- | --- | --- | --- |
| CC(C)[C@H](N)C(=O)N[C@@H](Cc1ccc(O)cc1)C(=O)O [Val-Tyr] (H-Val-Tyr-OH) | 55.2 ± 0.5 | > 40 |  |
| Tyr-Tyr | 7.66 ± 1.27 | 6.17 ± 0.39 | markedly inhibited |
